Results reported in ChEMBL document CHEMBL1909046, “DrugMatrix in vitro pharmacology data”.

What was measured:
[1] = molecular target: T1, Muscarinic acetylcholine receptor M5 (Homo sapiens, UniProt P08912); assay type: cell membranes, CHO-K1, Membrane; details: cho-k1; also: in other assays of this panel Not Active means under 50% inhibition at 10 µM
T1 sequence (P08912 whole entry): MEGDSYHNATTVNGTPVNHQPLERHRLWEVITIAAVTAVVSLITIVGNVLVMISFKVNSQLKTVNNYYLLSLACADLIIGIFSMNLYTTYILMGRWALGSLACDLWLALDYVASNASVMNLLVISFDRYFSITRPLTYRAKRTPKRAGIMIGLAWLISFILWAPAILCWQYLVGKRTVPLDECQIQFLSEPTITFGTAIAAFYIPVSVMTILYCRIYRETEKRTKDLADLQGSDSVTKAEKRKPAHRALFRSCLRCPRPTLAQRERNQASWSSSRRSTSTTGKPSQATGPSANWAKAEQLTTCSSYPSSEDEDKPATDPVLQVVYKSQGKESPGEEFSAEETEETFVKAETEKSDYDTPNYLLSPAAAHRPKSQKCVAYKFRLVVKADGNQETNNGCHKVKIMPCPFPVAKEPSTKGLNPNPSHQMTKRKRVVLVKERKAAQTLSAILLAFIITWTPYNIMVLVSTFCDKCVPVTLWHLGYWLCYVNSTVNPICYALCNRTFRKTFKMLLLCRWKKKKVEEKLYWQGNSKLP

[2] = DRUGMATRIX: Calcium Channel Type L, Dihydropyridine radioligand binding (ligand: [3H] Nitrendipine); assay type: cell membranes, Rattus norvegicus, Wistar, Cerebral cortex, Membrane; details: Not Active = under 50% inhibition at 10 µM
Neutrophil elastase = molecular target: T2, Neutrophil elastase (Homo sapiens, UniProt P08246); assay type: tissue-based;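 also: inhibition of neutrophil elastase enzyme activity, measured with a p-nitroanilide-linked peptide substrate; in other assays of this panel Not Active means under 50% inhibition at 10 µM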
T2 sequence (P08246 whole entry): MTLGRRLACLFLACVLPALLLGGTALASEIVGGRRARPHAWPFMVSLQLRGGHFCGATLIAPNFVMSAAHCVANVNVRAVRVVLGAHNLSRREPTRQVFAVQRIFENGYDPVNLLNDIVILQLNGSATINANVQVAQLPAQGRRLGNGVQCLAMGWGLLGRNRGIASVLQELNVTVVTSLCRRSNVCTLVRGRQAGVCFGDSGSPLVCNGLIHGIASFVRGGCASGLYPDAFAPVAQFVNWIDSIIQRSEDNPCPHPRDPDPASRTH

[3] = DRUGMATRIX: GABAA, Flunitrazepam, Central radioligand binding (ligand: [3H] Flunitrazepam); assay type: cell membranes, Rattus norvegicus, Wistar, Brain, Membrane; details: Not Active = under 50% inhibition at 10 µM
[4] = DRUGMATRIX: Phosphodiesterase PDE4 enzyme inhibition (substrate: [3H]cAMP + cAMP); details: u-937; Not Active = under 50% inhibition at 10 µM
[5] = molecular target: T3, 5-hydroxytryptamine receptor 1A (Rattus norvegicus, UniProt P19327); assay type: cell membranes, Membrane; details: cho-k1; also: in other assays of this panel Not Active means under 50% inhibition at 10 µM
T3 sequence (P19327 whole entry): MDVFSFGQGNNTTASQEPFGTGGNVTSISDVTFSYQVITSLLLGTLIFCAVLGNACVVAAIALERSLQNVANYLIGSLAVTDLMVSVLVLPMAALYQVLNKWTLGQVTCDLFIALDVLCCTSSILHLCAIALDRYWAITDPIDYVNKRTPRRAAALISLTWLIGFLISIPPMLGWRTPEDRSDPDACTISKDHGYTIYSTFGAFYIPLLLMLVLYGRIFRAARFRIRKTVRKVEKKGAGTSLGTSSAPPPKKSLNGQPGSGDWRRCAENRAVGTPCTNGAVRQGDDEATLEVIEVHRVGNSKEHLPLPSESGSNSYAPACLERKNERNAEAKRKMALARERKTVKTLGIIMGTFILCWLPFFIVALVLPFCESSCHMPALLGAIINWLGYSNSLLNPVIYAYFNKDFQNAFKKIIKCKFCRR

[6] = DRUGMATRIX: GABAA, Chloride Channel, TBOB radioligand binding (ligand: [3H] TBOB); assay type: cell membranes, Rattus norvegicus, Wistar, Cerebral cortex, Membrane; details: Not Active = under 50% inhibition at 10 µM
[7] = molecular target: T4, Neuropeptide Y receptor type 2 (Homo sapiens, UniProt P49146); assay type: cell membranes, Membrane; details: kan-ts; also: in other assays of this panel Not Active means under 50% inhibition at 10 µM
T4 sequence (P49146 whole entry): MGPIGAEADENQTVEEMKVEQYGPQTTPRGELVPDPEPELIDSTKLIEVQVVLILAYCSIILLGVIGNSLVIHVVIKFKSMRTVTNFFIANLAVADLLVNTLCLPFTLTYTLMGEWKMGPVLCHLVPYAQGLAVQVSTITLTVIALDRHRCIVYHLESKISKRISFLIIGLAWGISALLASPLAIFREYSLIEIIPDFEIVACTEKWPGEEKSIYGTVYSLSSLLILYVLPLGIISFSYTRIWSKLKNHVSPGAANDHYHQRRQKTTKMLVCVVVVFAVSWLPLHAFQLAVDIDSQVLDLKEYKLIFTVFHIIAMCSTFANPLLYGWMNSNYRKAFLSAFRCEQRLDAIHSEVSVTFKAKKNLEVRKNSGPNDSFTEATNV

CCOC(=O)[C@H](CCc1ccccc1)N[C@H]1CCc2ccccc2N(CC(=O)O)C1=O [BENAZEPRIL]
Not Active: IC50 [1] | IC50 [2] | Ki [2] | IC50 (Neutrophil elastase) | IC50 [3] | Ki [3] | IC50 [4] | Ki [4] | IC50 [5] | IC50 [6] | Ki [6] | IC50 [7]

Nc1c(CC(=O)O)cccc1C(=O)c1ccc(Br)cc1 [BROMFENAC]
Not Active: IC50 [1] | IC50 [2] | Ki [2] | IC50 (Neutrophil elastase) | IC50 [3] | Ki [3] | IC50 [4] | Ki [4] | IC50 [5] | IC50 [6] | Ki [6] | IC50 [7]

CCCCN1CCCCC1C(=O)Nc1c(C)cccc1C.Cl (stereo not drawn) [BUPIVACAINE HYDROCHLORIDE]
Not Active: IC50 [1] | IC50 [2] | Ki [2] | IC50 (Neutrophil elastase) | IC50 [3] | Ki [3] | IC50 [4] | Ki [4] | IC50 [5] | IC50 [6] | Ki [6] | IC50 [7]

C[C@@]12C(=O)OC(=O)[C@]1(C)[C@H]1CC[C@@H]2O1 [CANTHARIDIN]
Not Active: IC50 [1] | IC50 [2] | Ki [2] | IC50 (Neutrophil elastase) | IC50 [3] | Ki [3] | IC50 [4] | Ki [4] | IC50 [5] | IC50 [6] | Ki [6] | IC50 [7]

O=NN(CCCl)C(=O)NCCCl [CARMUSTINE]
Not Active: IC50 [1] | IC50 [2] | Ki [2] | IC50 (Neutrophil elastase) | IC50 [3] | Ki [3] | IC50 [4] | Ki [4] | IC50 [5] | IC50 [6] | Ki [6] | IC50 [7]

CC1=C(C(=O)O)N2C(=O)[C@@H](NC(=O)[C@H](N)c3ccccc3)[C@H]2SC1 [CEPHALEXIN ANHYDROUS]
Not Active: IC50 [1] | IC50 [2] | Ki [2] | IC50 (Neutrophil elastase) | IC50 [3] | Ki [3] | IC50 [4] | Ki [4] | IC50 [5] | IC50 [6] | Ki [6] | IC50 [7]

O=C(N[C@H](CO)[C@H](O)c1ccc([N+](=O)[O-])cc1)C(Cl)Cl [CHLORAMPHENICOL]
Not Active: IC50 [1] | IC50 [2] | Ki [2] | IC50 (Neutrophil elastase) | IC50 [3] | Ki [3] | IC50 [4] | Ki [4] | IC50 [5] | IC50 [6] | Ki [6] | IC50 [7]

ClC(Cl)Cl [CHLOROFORM]
Not Active: IC50 [1] | IC50 [2] | Ki [2] | IC50 (Neutrophil elastase) | IC50 [3] | Ki [3] | IC50 [4] | Ki [4] | IC50 [5] | IC50 [6] | Ki [6] | IC50 [7]

C=C1CC[C@H](O)C/C1=C/C=C1\CCC[C@]2(C)[C@@H]([C@H](C)CCCC(C)C)CC[C@@H]12 [CHOLECALCIFEROL]
Not Active: IC50 [1] | IC50 [2] | Ki [2] | IC50 (Neutrophil elastase) | IC50 [3] | Ki [3] | IC50 [4] | Ki [4] | IC50 [5] | IC50 [6] | Ki [6] | IC50 [7]

C[N+](C)(C)CCO.[Cl-] [CHOLINE CHLORIDE]
Not Active: IC50 [1] | IC50 [2] | Ki [2] | IC50 (Neutrophil elastase) | IC50 [3] | Ki [3] | IC50 [4] | Ki [4] | IC50 [5] | IC50 [6] | Ki [6] | IC50 [7]

CCOC(=O)C(C)(C)Oc1ccc(Cl)cc1 [CLOFIBRATE]
Not Active: IC50 [1] | IC50 [2] | Ki [2] | IC50 (Neutrophil elastase) | IC50 [3] | Ki [3] | IC50 [4] | Ki [4] | IC50 [5] | IC50 [6] | Ki [6] | IC50 [7]

CC(=O)OCC(=O)[C@@]1(O)CC[C@H]2[C@@H]3CCC4=CC(=O)CC[C@]4(C)[C@H]3C(=O)C[C@@]21C [CORTISONE ACETATE]
Not Active: IC50 [1] | IC50 [2] | Ki [2] | IC50 (Neutrophil elastase) | IC50 [3] | Ki [3] | IC50 [4] | Ki [4] | IC50 [5] | IC50 [6] | Ki [6] | IC50 [7]

O=c1ccc2ccccc2o1 [COUMARIN]
Not Active: IC50 [1] | IC50 [2] | Ki [2] | IC50 (Neutrophil elastase) | IC50 [3] | Ki [3] | IC50 [4] | Ki [4] | IC50 [5] | IC50 [6] | Ki [6] | IC50 [7]

C[C@@H]1C[C@@H]([C@H](O)CC2CC(=O)NC(=O)C2)C(=O)[C@@H](C)C1 [CYCLOHEXIMIDE]
Not Active: IC50 [1] | IC50 [2] | Ki [2] | IC50 (Neutrophil elastase) | IC50 [3] | Ki [3] | IC50 [4] | Ki [4] | IC50 [5] | IC50 [6] | Ki [6] | IC50 [7]

CN(C)/N=N/c1[nH]cnc1C(N)=O [DACARBAZINE]
Not Active: IC50 [1] | IC50 [2] | Ki [2] | IC50 (Neutrophil elastase) | IC50 [3] | Ki [3] | IC50 [4] | Ki [4] | IC50 [5] | IC50 [6] | Ki [6] | IC50 [7]

COc1ccc2c(c1)[C@]13CCCC[C@@H]1[C@H](C2)N(C)CC3 [DEXTROMETHORPHAN]
Not Active: IC50 [1] | IC50 [2] | Ki [2] | IC50 (Neutrophil elastase) | IC50 [3] | Ki [3] | IC50 [4] | Ki [4] | IC50 [5] | IC50 [6] | Ki [6] | IC50 [7]

CC(=O)Nc1c(I)c(NC(C)=O)c(I)c(C(=O)O)c1I [DIATRIZOIC ACID]
Not Active: IC50 [1] | IC50 [2] | Ki [2] | IC50 (Neutrophil elastase) | IC50 [3] | Ki [3] | IC50 [4] | Ki [4] | IC50 [5] | IC50 [6] | Ki [6] | IC50 [7]

COP(=O)(OC)OC=C(Cl)Cl [DICHLORVOS]
Not Active: IC50 [1] | IC50 [2] | Ki [2] | IC50 (Neutrophil elastase) | IC50 [3] | Ki [3] | IC50 [4] | Ki [4] | IC50 [5] | IC50 [6] | Ki [6] | IC50 [7]

O=C(O)Cc1ccccc1Nc1c(Cl)cccc1Cl [DICLOFENAC]
Not Active: IC50 [1] | IC50 [2] | Ki [2] | IC50 (Neutrophil elastase) | IC50 [3] | Ki [3] | IC50 [4] | Ki [4] | IC50 [5] | IC50 [6] | Ki [6] | IC50 [7]
